Results reported in patent publication US10596172B2 (Celgene CAR LLC, priority 2008, dated 2020).
Where two headings read alike, the source gives them in different places.

Tested on: B cell lymphoma cell lines
Experiment: B cell lymphoma proliferation assay
Type: cell-based
[1] = Homo sapiens, DOHH-2, DOHH2 B cell lymphoma cell line, read-out: EC50 (μM) DOHH2
[2] = Homo sapiens, WSUDLCL2, WSU-DLCL2 B cell lymphoma cell line, read-out: EC50 (μM) WSU-DLCL2
[3] = DHL4 B cell lymphoma cell line, read-out: EC50 (μM) DHL4

Compound	EC50 [1] [µM]	EC50 [2] [µM]	EC50 [3] [µM]
C=CC(=O)Nc1cccc(Nc2nc(Nc3ccc(N(C)CCOC)nc3)ncc2F)c1 [Compound I-77, N-(3-(5-fluoro-2-(6-((2-methoxyethyl)(methyl)amino)pyridin-3-ylamino)pyrimidin-4-ylamino)phenyl)acrylamide]	0.1 to 1		
C=CC(=O)Nc1cccc(Nc2nc(Nc3ccc(OC4CCC4)nc3)ncc2F)c1 [Compound I-79, N-(3-(2-(6-cyclobutoxypyridin-3-ylamino)-5-fluoropyrimidin-4-ylamino)phenyl)acrylamide]	1 to 10		
C=CC(=O)Nc1cccc(Nc2nc(Nc3ccc(OCCCS(C)(=O)=O)nc3)ncc2F)c1 [Compound I-80, N-(3-(5-fluoro-2-(6-(3-(methylsulfonyl)propoxy)pyridin-3-ylamino)pyrimidin-4-ylamino)phenyl)acrylamide]	0.1 to 1		
C=CC(=O)Nc1cccc(Oc2nc(Nc3cccc(OCC4CCCN(C)C4)c3)ncc2F)c1 (stereo not shown) [Compound I-81, N-(3-(5-fluoro-2-(3-((1-methylpiperidin-3-yl)methoxy)phenylamino)pyrimidin-4-yloxy)phenyl)acrylamide]	0.1 to 1		
COCCOc1ccc(Nc2ncc(F)c(Nc3cccc(NC(=O)/C=C/CN4CC[C@H](O)C4)c3)n2)cc1 [Compound I-88, (S,E)-N-(3-(5-fluoro-2-(4-(2-methoxyethoxy)phenylamino)pyrimidin-4-ylamino)phenyl)-4-(3-hydroxypyrrolidin-1-yl)but-2-enamide]	1 to 10		
COCCOc1ccc(Nc2ncc(F)c(Nc3cccc(NC(=O)/C=C/CN4CC[C@@H](O)C4)c3)n2)cc1 [Compound I-89, (R,E)-N-(3-(5-fluoro-2-(4-(2-methoxyethoxy)phenylamino)pyrimidin-4-ylamino)phenyl)-4-(3-hydroxypyrrolidin-1-yl)but-2-enamide]	1 to 10		
C=CC(=O)Nc1cccc(Nc2nc(Nc3ccc(OCC4CCN(C)CC4)cc3)ncc2F)c1 [Compound I-90, N-(3-(5-fluoro-2-(4-((1-methylpiperidin-4-yl)methoxy)phenylamino)pyrimidin-4-ylamino)phenyl)acrylamide]	0.1 to 1		
C=CC(=O)Nc1cccc(Nc2nc(Nc3cccc(OC(C)(C)CO)c3)ncc2F)c1 [Compound I-91, N-(3-(5-fluoro-2-(3-(1-hydroxy-2-methylpropan-2-yloxy)phenylamino)pyrimidin-4-ylamino)phenyl)acrylamide]	1 to 10	1 to 10	
C=CC(=O)Nc1cccc(Nc2nc(Nc3ccc(OCCOC)nc3)ncc2C(C)=O)c1 [Compound I-122, N-(3-{5-Acetyl-2-[6-(2-methoxy-ethoxy)-pyridin-3-ylamino]-pyrimidin-4-ylamino}-phenyl)-acrylamide]	1 to 10		
C=CC(=O)Nc1cccc(Nc2nc(Nc3ccc(OCCOC)cc3)ncc2C(C)=O)c1 [Compound I-124, N-(3-{5-Acetyl-2-[4-(2-methoxy-ethoxy)-phenylamino]-pyrimidin-4-ylamino}-phenyl)-acrylamide]	1 to 10		
C=CC(=O)Nc1cccc(Nc2nc(Nc3ccc4c(c3)N(C)CCO4)ncc2F)c1 [Compound I-126, N-(3-(2-(4-methyl-2,3-dihydrobenzo[1,4]oxazin-6-yl)amino-5-fluoropyrimidin-4-ylamino)phenyl)acrylamide]	< 0.1		
C=CC(=O)N1CCOc2ccc(Nc3nc(Nc4ccc5c(c4)CC(=O)N5)ncc3C(C)=O)cc21 [Compound I-129, 5-[5-Acetyl-4-(4-acryloyl-3,4-dihydro-2H-benzo[1,4]oxazin-6-ylamino)-pyrimidin-2-ylamino]-1,3-dihydro-indol-2-one]	1 to 10		
C=CC(=O)N1Cc2ccc(Nc3nc(Nc4cccc(OC)c4)ncc3C(F)(F)F)cc2C1 [Compound I-132, 1-(5-(5-trifluoromethyl-2-(3-methoxyphenylamino)pyrimidin-4-yl)amino-1,3-dihydroisoindol-2-yl)2-propen-1-one]	1 to 10		1 to 10
C=CC(=O)Nc1cccc(Nc2nc(Nc3cc(OC)c(OC)c(OC)c3)ncc2F)c1 [Compound I-133, 4-(3-acrylamidophenylamino)-5-fluoro-2-(3,4,5-trimethoxyphenylamino)-pyrimidine]	0.1 to 1		< 0.1
C=CC(=O)Nc1cccc(Nc2nc(Nc3ccc(OC)c(OC)c3)ncc2F)c1 [Compound I-134, 4-(3acrylamidophenylamino)-5-fluoro-2-(3,4-dimethoxyphenylamino)-pyrimidine]	0.1 to 1		< 0.1
C=CC(=O)N1CCC[C@@H](Nc2nc(Nc3cccc(OCCN4CCOCC4)c3)ncc2F)C1 [Compound I-135, (R)-1-(3-(5-fluoro-2-(3-(2-morpholinoethoxy)phenylamino)pyrimidin-4-ylamino)piperidin-1-yl)prop-2-en-1-one]	> 10		> 10
C=CC(=O)Nc1cccc(Nc2nc(Nc3cccc(OCCCS(C)(=O)=O)c3)ncc2F)c1 [Compound I-138, 4-(3-acrylamidophenylamino)-5-fluoro-2-(3-(3-(methylsulfonyl)propoxy)phenylamino)-pyrimidine]	1 to 10		1 to 10
C=CC(=O)N1CCOc2ccc(Nc3nc(Nc4ccc(OCCOC)cc4)ncc3F)cc21 [Compound I-141, 1-(6-(5-fluoro-2-(4-(2-methoxyethoxy)phenylamino)pyrimidin-4-ylamino)-2H-benzo[b][1,4]oxazin-4(3H)-yl)prop-2-en-1-one]	1 to 10		
C=CC(=O)N1CCOc2ccc(Nc3nc(Nc4ccc(N(C)C(=O)C(F)(F)F)nc4)ncc3C(C)=O)cc21 [Compound I-142, N-(5-(5-acetyl-4-(4-acryloyl-3,4-dihydro-2H-benzo[b][1,4]oxazin-6-ylamino)pyrimidin-2-ylamino)pyridin-2-yl)-2,2,2-trifluoro-N-methylacetamide]	1 to 10		
C=CC(=O)Nc1cccc(Nc2nc(Nc3ccc4c(c3)N(C(=O)C(F)(F)F)CCO4)ncc2F)c1 [Compound I-143, N-(3-(2-(4-trifluoroacetyl-2,3-dihydrobenzo[1,4]oxazin-6-yl)amino-5-fluoropyrimidin-4-ylamino)phenyl)acrylamide]	1 to 10	1 to 10	1 to 10
C=CC(=O)Nc1cccc(Nc2nc(Nc3ccc4c(cnn4C(=O)OC(C)(C)C)c3)ncc2F)c1 [Compound I-151]	1 to 10		1 to 10
C=CC(=O)Nc1cccc(Nc2nc(Nc3ccc4[nH]ncc4c3)ncc2F)c1 [Compound I-156]	0.1 to 1	1 to 10	1 to 10
C=CC(=O)Nc1cccc(Nc2nc(Nc3cccc(OC)c3)ncc2OC)c1 [Compound I-158, N-(3-(5-methoxy-2-(3-methoxyphenylamino)pyrimidin-4-ylamino)phenyl)acrylamide]	1 to 10	1 to 10	1 to 10

Continued, values first:

EC50 [1] [µM]	EC50 [2] [µM]	EC50 [3] [µM]	Compound
0.1 to 1			C=CC(=O)Nc1cccc(Nc2nc(Nc3ccc(OCC4CCN(C)CC4)nc3)ncc2F)c1 [Compound I-78, N-(3-(5-fluoro-2-(6-((1-methylpiperidin-4-yl)methoxy)pyridin-3-ylamino)pyrimidin-4-ylamino)phenyl)acrylamide]
> 10			C=CC(=O)Nc1cccc(Nc2nc(Nc3ccc(OCc4ccccn4)c(Cl)c3)ncc2F)c1 [Compound I-86, N-(3-(2-(3-chloro-4-(pyridin-2-ylmethoxy)phenylamino)-5-fluoropyrimidin-4-ylamino)phenyl)acrylamide]
1 to 10			C=CC(=O)Nc1cc(Nc2nc(Nc3ccc(OCCOC)cc3)ncc2F)ccc1F [Compound I-87, N-(2-fluoro-5-(5-fluoro-2-(4-(2-methoxyethoxy)phenylamino)pyrimidin-4-ylamino)phenyl)acrylamide]
	1 to 10		C=CC(=O)Nc1cccc(Nc2nc(Nc3ccc(OCCOC)nc3)ncc2F)c1 [Compound I-103, N-(3-(5-fluoro-2-(6-(2-methoxyethoxy)pyridine-3-ylamino)pyrimidin-4-ylamino)phenyl)acrylamide]
0.1 to 1	1 to 10		C=CC(=O)Nc1cccc(Nc2nc(Nc3cccc(OCCO)c3)ncc2F)c1 [Compound I-105, N-(3-(5-fluoro-2-(3-(2-hydroxyethoxy)phenylamino)pyrimidin-4-ylamino)phenyl)acrylamide]
1 to 10			C=CC(=O)Nc1cccc(Nc2nc(Nc3ccc(OCCO)nc3)ncc2C(C)=O)c1 [Compound I-121, N-(3-{5-Acetyl-2-[6-(2-hydroxy-ethoxy)-pyridin-3-ylamino]-pyrimidin-4-ylamino}-phenyl)-acrylamide]
1 to 10			C=CC(=O)N1CCOc2ccc(Nc3nc(Nc4ccc(OCCO)nc4)ncc3C(C)=O)cc21 [Compound I-128, 1-(6-{5-Acetyl-2-[6-(2-hydroxy-ethoxy)-pyridin-3-ylamino]-pyrimidin-4-ylamino}-2,3-dihydro-benzo[1,4]oxazin-4-yl)-propenone]
1 to 10			C=CC(=O)N1CCC[C@@H](Nc2nc(Nc3cccc(Cl)c3)ncc2F)C1 [Compound I-147, (R)-1-(3-(2-(3-chlorophenylamino)-5-fluoropyrimidin-4-ylamino)piperidin-1-yl)prop-2-en-1-one]
1 to 10	1 to 10	1 to 10	C=CC(=O)N1CCOc2ccc(Nc3nc(Nc4ccc(OCCOC)cc4)ncc3C(C)=O)cc21 [Compound I-150, 1-(6-{5-Acetyl-2-[4-(2-methoxy-ethoxy)-phenylamino]-pyrimidin-4-ylamino}-2,3-dihydro-benzo[1,4]oxazin-4-yl)-propenone]
1 to 10			C=CC(=O)N1CCOc2ccc(Nc3nc(Nc4ccc(N5CCCC5=O)cc4)ncc3C(C)=O)cc21 [Compound I-152, 1-{4-[5-Acetyl-4-(4-acryloyl-3,4-dihydro-2H-benzo[1,4]oxazin-6-ylamino)-pyrimidin-2-ylamino]-phenyl}-pyrrolidin-2-one]
1 to 10	1 to 10	1 to 10	C=CC(=O)Nc1cccc(Nc2nc(Nc3ccc4c(cnn4C)c3)ncc2F)c1 [Compound I-155]
1 to 10	1 to 10	1 to 10	C=CC(=O)Nc1cccc(Nc2nc(Nc3ccccc3)ncc2C#N)c1 [Compound I-157, N-(3-(5-cyano-2-(phenylamino)pyrimidin-4-ylamino)phenyl)acrylamide]
